In test [1] the test system is Salinispora tropica CNB440. Put plainly: Production of Salinosporamide A and analogs in shake flask culture; titers by HPLC. To be noted: Ex.21, CoCl2·6H2O 208 μg/L seed, 52 μg/L production vs no cobalt. How it is done: (§1) To determine the production profile of Low Sodium Frozen Stocks cultures of CNB440, CNB476 and NPS21184 grown up in low sodium production medium, 5 mL each of the 48-hour second seed culture samples of CNB476 and NPS21184 was used to inoculate 100 mL of production medium having the same composition as the seed medium in a 500-mL Erlenmeyer flasks. For CNB440, 5 mL of the 72 hour second seed culture sample was used to inoculate 100 mL of production medium having the same composition as the seed medium in a 500-mL Erlenmeyer flasks. The production cultures were incubated at 250 rpm and 28° C.
(§2) 3.5 mL of the fermentation culture was mixed with equal volume of EtOAc in an extraction tube to extract the various metabolites from the production culture. The mixture was shaken on the shaker for 1 hr. […]
(§3) The production of Salinosporamide A, NPI-0047 and NPI-2065 was monitored by Agilent HP1100 HPLC using an ACE C-18 reversed-phase column (4.6×150 mm), and solvent system consisting of water (0.01% TFA) as solvent A and acetonitrile (0.01% TFA) as solvent B. The elution was started at 100% solvent A for 1 min, 100% solvent A to 35% solvent A gradient in 7 min, held at 35% solvent A for 11 min, 35% solvent A to 100% solvent B in 8 min and held at 100% solvent B for 9 min at a flow rate of 1.5 mL/min with the detector wavelength set at 210 nm and column temperature 35° C. […]

The test system of test [2] is Salinispora tropica CNB476. Described as above. The conditions noted are these: Ex.21, CoCl2·6H2O 208 μg/L seed, 52 μg/L production vs no cobalt. How it is done: as §1, §2, §3
For test [3], the system named is Salinispora tropica NPS021184. Briefly: Production of Salinosporamide A and analogs in 42 L fermentor culture; titers by HPLC. The conditions noted are these: for decrease of production: Ex.3, chemically defined salt formulation replacing INSTANT OCEAN, with cobalt. How it is done:
Seed cultures were prepared by inoculating frozen stock of Salinispora tropica NPS021184 into seed medium. For 10 mL seed medium in a 50-mL culture tube, one frozen stock (˜1.5 mL) was used for inoculation. For 100 mL seed medium in a 500-mL Erlenmeyer flask, two frozen stocks (˜3 mL total) were used for inoculation.
The first seed cultures (either 10 mL medium in a 50-mL tube or 100 mL medium in a 500-mL Erlenmeyer flask) were incubated at 250 rpm and 28° C. for 3 to 4 days before inoculating (5% inoculum) into second seed medium with the same salt composition as used for the first seed cultures. After incubating at 250 rpm and 28° C. for 2 days, the second seed cultures (5% inoculum) were inoculated into an additional third seed culture (400 mL medium in 2.8 L Fembach flask) with the same medium, salt composition and incubation time as the second seed cultures, before inoculating into production media in the fermentor (26 L medium in a 42 L B. Braun Biostat-C fermentor).
The production medium was then supplemented with either INSTANT OCEAN® commercial salt formulation or a chemically defined salt formulation based on the salt supplement used in the seed stages. The chemically defined salt formulation consisted of: […]
The production medium for fermentation was also supplemented with CoCl2.6H2O at a concentration of 52 μg/L. No CoCl2.6H2O was added to the production medium in control samples.
3.5 mL of the fermentation culture was mixed with equal volume of EtOAc in an extraction tube to extract the various metabolites from the production culture.
The mixture was shaken for 1 hr. An aliquot of the extract (1 mL) was removed and dried under a stream of nitrogen. The dried extract was stored at −20° C. freezer before HPLC analysis. The dried extract was resuspended in 320 μL DMSO and injected into HPLC using the 00TF14 method for analysis.
The production of Salinosporamide A, NPI-0047 and NPI-2065 was monitored by Agilent HP1100 HPLC using an ACE C-18 reversed-phase column (4.6×150 mm), and solvent system consisting of water (0.01% TFA) as solvent A and acetonitrile (0.01% TFA) as solvent B. The elution was started at 100% solvent A for 1 min, 100% solvent A to 35% solvent A gradient in 7 min, held at 35% solvent A for 11 min, 35% solvent A to 100% solvent B in 8 min and held at 100% solvent B for 9 min at a flow rate of 1.5 mL/min with the detector wavelength set at 210 nm and column temperature 35° C.
The first seed culture (100 mL medium) in a 500-mL Erlenmeyer flask was incubated at 250 rpm and 28° C. for 72 hours. 20 mL of the first seed culture was inoculated into second seed culture (400 ml medium) in a 2.8 L Fernbach flask with the same medium as the first seed culture. The second seed culture was incubated at 250 rpm and 28° C. for 48 hours. 200 mL of the […] was inoculated into a B. Braun B-Plus 5 L fermentor containing 4 L third seed medium with the same composition as the first and second seed medium. The thirds seed fermentor culture was incubated at 300 rpm and 28° C. with the airflow rate of 2 L/min for 36 hours. 1.5 L of the third seed culture was inoculated into 26 L production medium in a 42 L B. Braun Biostat-C fermentor.
The production fermentor culture was operated at 200 rpm and 28° C. with the airflow rate of 13 L/min.
3.5 mL of the fermentation culture was mixed with equal volume of EtOAc in an extraction tube to extract the various metabolites from the production culture. The mixture was shaken on the shaker for 1 hr. An aliquot of the extract (1 mL) was removed and dried under a stream of nitrogen. The dried extract was stored at −20° C. freezer before HPLC analysis. The dried extract was resuspended in 320 μL DMSO and injected into HPLC using the 00TF14 method for analysis.
Alternatively, the production of the compounds can be achieved in a 42 L fermentor system using strain NPS21184. […]

Where [4] appears, read: Ex.3, cobalt in seed and production media with INSTANT OCEAN vs no cobalt.

Data on three compounds can be found in patent publication US10011814B2, “Salt formulations for the fermentation of marine microorganisms” (Triphase Research and Development I Corp., priority 2006, dated 2018).

On to `CC[C@H]1C(=O)N[C@@]2([C@@H](O)[C@@H]3C=CCCC3)C(=O)O[C@@]12C` [NPI-0047, Salinosporamide B], for which the entries for the “reduction of production by cobalt” value in test [1] and in test [2] were 48% and 52%, respectively. The decrease of production in test [3] was determined as 47.3%. Also, in test [3] (setting [4]), the “decrease of production, on average” value was 48.1%.

In the case of `C[C@@]12OC(=O)[C@]1([C@@H](O)[C@@H]1C=CCCC1)NC(=O)[C@H]2CCCl` [NPI-2065], the decrease of production in test [3] was determined as 7.9%. Besides, the “decrease of production, on average” value in test [3] (setting [4]) is reported as 23.2%.

Take `C[C@@]12OC(=O)[C@]1([C@@H](O)[C@@H]1C=CCCC1)NC(=O)[C@@H]2CCCl` [Salinosporamide A]: the decrease of production in test [3] is 8.7%. Moreover, in test [3] (setting [4]), the “increase of production, on average” value is recorded as 14.3%.
